Like-named read-outs stand apart in the source and are kept apart here.
Columns and labels:
CB1 receptor [1] = biological target: CB1 receptor (UniProt P21554); assay: CB1 receptor affinity assay; type: binding; conditions: for Kd: read-out: CB1KD
Method: (§1) Mouse Tetrad and CB1 and CB2 receptor Affinity. The mouse tetrad and CB1 and CB2 receptor affinity assays were carried out as previously described in Wiley, J. L., Beletskaya, I. D., Ng, E. W., Dai, Z., Crocker, P. J., Mahadevan, A, Razdan, R. K., Martin, B. R., Resorcinols derivatives: a novel template for the delevopment of cannabinoid CB1/CB2 and CB2-selective agonists. J. Pharmacol. Exp. Ther. 301: 679-689, 2002.
(§2) The incorporation of sulfonaminde moieties is known to impart antagonistic activity in some classes of compounds. There is precedent for sulfonamide derivatives to show potent antagonist activity in peptidoleukotrienes (see for example, Matassa et al., J. Med. Chem. 1990, 33, 2621-2629; Jacobs et al., J. Med. Chem. 1993, 36, 394-409). In the development of the present invention, a sulfonamide moiety, SO2R, in which the identity of R was varied, was incorporated into the terminal position of a tetrahydrocannabinol (THC) side chain, which was also varied (saturated or unsaturated) as described above. The resulting compounds were tested for CB1 and CB2 receptor binding affinity, and cannabinoid agonist and antagonist properties using the mouse tetrad test, as described in Materials and Methods.

CB2 receptor = CB2 receptor (Homo sapiens, UniProt P34972); assay: CB2 receptor affinity assay; type: binding
CB2 receptor, sequence (P34972 whole entry): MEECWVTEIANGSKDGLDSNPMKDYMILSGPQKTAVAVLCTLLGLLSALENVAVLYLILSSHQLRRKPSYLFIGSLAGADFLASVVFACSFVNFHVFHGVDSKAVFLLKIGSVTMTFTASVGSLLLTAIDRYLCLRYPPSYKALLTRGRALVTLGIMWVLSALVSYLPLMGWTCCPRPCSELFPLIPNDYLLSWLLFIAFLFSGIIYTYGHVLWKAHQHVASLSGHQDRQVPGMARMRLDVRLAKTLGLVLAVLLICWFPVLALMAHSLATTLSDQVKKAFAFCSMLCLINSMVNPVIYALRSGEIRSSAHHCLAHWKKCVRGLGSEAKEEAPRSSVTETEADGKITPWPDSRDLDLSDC
Method: as §1, §2

CB1 receptor [2] = biological target: T1, CB1 receptor (Rattus norvegicus, UniProt P20272); assay: GTPγS binding in rat brain membranes, compound alone (inverse agonism); type: biochemical; design: from tissue; host or cells: rat brain membranes; conditions: for GTPγS stimulation (1 μM): rat brain membranes
T1 sequence (P20272 whole entry): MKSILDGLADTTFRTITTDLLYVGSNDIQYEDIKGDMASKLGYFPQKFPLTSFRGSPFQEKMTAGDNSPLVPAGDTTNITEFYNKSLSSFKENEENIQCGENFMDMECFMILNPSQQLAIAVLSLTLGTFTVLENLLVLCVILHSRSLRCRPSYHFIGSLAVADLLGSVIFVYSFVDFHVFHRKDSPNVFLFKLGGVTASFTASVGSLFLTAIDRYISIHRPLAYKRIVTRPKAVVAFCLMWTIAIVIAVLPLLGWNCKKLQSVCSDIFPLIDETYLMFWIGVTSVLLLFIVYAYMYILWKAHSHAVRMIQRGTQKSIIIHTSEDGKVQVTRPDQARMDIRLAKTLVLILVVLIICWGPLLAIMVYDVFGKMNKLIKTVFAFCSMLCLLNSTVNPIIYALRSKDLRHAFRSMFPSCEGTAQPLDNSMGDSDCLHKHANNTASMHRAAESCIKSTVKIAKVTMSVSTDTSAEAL
Excerpt: FIG. 2. Compound O-2050 lacks inverse agonism in GTPγS binding in rat brain membranes. X axis, concentration of O-2050 (M); Y axis, % stimulation of GTPγS binding.
In order to determine whether O-2050 had inverse agonist properties, the compound was examined alone in the GTPγS binding assay. […] The performance of O-2050 in this assay in comparison to two other compounds with unsaturated side chains and varying R groups (O-1991, R=ethyl, and O-1993, R=butyl) are given in Table 3.

mice = assay: Mouse tetrad test (sedation, analgesia, hypothermia) following i.v. administration; type: in vivo; conditions: for ED50: iv
Method: as §1, §2
The compounds were tested for their CB1 and CB2 receptor binding ability, and their cannabinoid agonist and antagonist properties.

CB1 receptor [3] = biological target: T2, CB1 receptor (Mus musculus, UniProt P47746); assay: Antagonism of WIN 55,212-2 inhibition of electrically induced contractions of mouse vas deferens; type: cell-based
T2 construct: O-2050 behaves as a CB1 receptor antagonist at naturally expressed CB1 receptors; from tissue; host or cells: mouse vas deferens
T2 sequence (P47746 whole entry): as the sequence (P20272 whole entry) above, with E95D counted along it
Method: FIG. 3. Compound O-2050 antagonism of WIN 55,212-2 in mouse vas deferens. X axis, concentration of WIN 55,212-2; Y axis, % inhibition of WIN 55,212-2 activity (mean % inhibition±standard error [s.e.] of the mean). Open circles=vehicle control (WIN 55212-2 added after pretreatment with dimethylsulfoxide (DMSO), the solvent in which the O-2050 was dissolved; open triangles: 1 nM O-2050 (WIN 55,212-2 added after pretreatment with 1 nM O-2050); filled circles: 10 nM O-2050 (WIN 55,212-2 added after pretreatment with 10 nM O-2050); filled triangles: 31.62 nM O-2050 (WIN 55,212-2 added after pretreatment with 31.62 nM O-2050); filled squares: 100 nM O-2050 (WIN 55,212-2 added after pretreatment with 100 nM O-2050.
These observations were extended by examining O-2050 in the mouse vas deferens, a smooth muscle preparation that is regulated by the cannabinoid system.

CB1 receptor [4] = biological target: T1, CB1 receptor; assay: Block of CP 55,940-stimulated GTPγS binding in rat brain tissue; type: biochemical; design: from tissue; host or cells: rat brain tissue
Method: FIG. 1. Compound O-2050 blocks CP 55,940 stimulation of GTPγS binding. O-2050 was tested for its ability to block stimulation of GTPγS binding by CP 55,940. […], log concentration of O-2050; Y axis, % stimulation by CP 55,940.
The above properties of O-2050 are indicative of an antagonist. Therefore, the ability of O-2050 to block the agonist effects of CP 55,940, a highly efficacious cannabinoid, in the in vitro GTPγS binding assay in rat brain tissue was tested. The assay is an in vitro functional measure of CB1 receptor activation.

mouse vas deferens [5] = assay: Mouse vas deferens, compound alone (inverse agonism); type: cell-based; conditions: up to 1000 nM
Excerpt: FIG. 4. Compound O-2050 lacks inverse agonism in GTPγS binding in mouse vas deferens. Y axis, % enhancement±s.e. (standard error of the mean) of GTPγS binding in mouse vas deferens by O-2050 at the indicated concentrations.
In order to determine whether O-2050 has inverse agonist properties in the mouse vas deferens, the compound was examined alone in this tissue preparation. […] O-2050 therefore differs from the putative inverse agonist, SR141716A, which does enhance the amplitude of these contractions in this bioassay system (e.g. see Pertwee et al., 1996, Eur. J. Pharmacol. 315: 195-201). […] Therefore, O-2050 lacks inverse agonist properties in yet another system that is regulated by the cannabinoids.

mouse vas deferens [6] = conditions: literature, Pertwee et al. 1996; cited from earlier work
[7] = mouse tetrad, i.v. administration, read-out: Analgesia ED50
[8] = mouse tetrad, i.v. administration, read-out: Sedation ED50
[9] = mouse tetrad, i.v. administration, read-out: Temperature (hypothermia) ED50
[10] = mouse tetrad, i.v. administration

With `CCS(=O)(=O)NCCCC#CCc1cc(O)c2c(c1)OC(C)(C)C1CC=C(C)CC21` (stereo not shown) [Compound O-1991, 3-Norpentyl 3-(6-ethanesulfamidohex-2-yne-yl)-Δ^8-tetrahydrocannabinol] the “CB1 receptor affinity (in words)” value (CB1 receptor [1]) was “moderate affinity”, the Kd (CB1 receptor [1]) was 20 ± 13 nM and the “CB2 receptor affinity (in words)” value (CB2 receptor) was “high affinity”. For the same molecule, the Kd (CB2 receptor) was 1.4 ± 0.2 nM, the “Negative stimulation of GTPγS binding / agonist character (in words)” value (CB1 receptor [2]) was “weak agonists” and the “GTPγS stimulation (1 μM)” value (CB1 receptor [2]) was 29%. For the same molecule, the “Agonist potency in mouse tetrad test (in words)” value (“Agonist potency” below) (mice; i.v. administration) was “moderate to low pharmacological agonist potency”, the ED50 (mice; [7]) was 0.9 mg/kg and the ED50 (mice; [8]) was 1.7 mg/kg. It also gave an ED50 (mice; [9]) of 0.8 mg/kg.

With `CCCCS(=O)(=O)NCCCC#CCc1cc(O)c2c(c1)OC(C)(C)C1CC=C(C)CC21` (stereo not shown) [Compound O-1993] the “CB1 receptor affinity (in words)” value (CB1 receptor [1]) was “moderate affinity”, the Kd (CB1 receptor [1]) was 70 ± 10 nM and the “CB2 receptor affinity (in words)” value (CB2 receptor) was “only moderate affinity”. The Kd (CB2 receptor) was 86 ± 7 nM, the “Negative stimulation of GTPγS binding / agonist character (in words)” value (CB1 receptor [2]) was “weak agonists” and the “GTPγS stimulation (1 μM)” value (CB1 receptor [2]) was 30%. The “Agonist potency” value (mice; i.v. administration) was “moderate to low pharmacological agonist potency”, the ED50 (mice; [7]) was 14 mg/kg and the ED50 (mice; [8]) was 7.6 mg/kg. It also gave an ED50 (mice; [9]) of 12 mg/kg.

In the case of `CC1=CCC2C(C1)c1c(O)cc(C(C)(C)CCCCNS(=O)(=O)c3ccccc3)cc1OC2(C)C` (stereo not shown) [Compound O-2048, 1,1-Dimethyl-5-phenylsulfamido-Δ^8-tetrahydrocannabinol], the “CB1 receptor affinity (in words)” value (CB1 receptor [1]) is reported as “high affinity”, the Kd (CB1 receptor [1]) is reported as 4.1 ± 0.4 nM and the “CB2 receptor affinity (in words)” value (CB2 receptor) is reported as “high affinity”. The “Agonist potency” value (mice; i.v. administration) was “potent cannabinoid agonists”, the ED50 (mice; [7]) was 2.8 mg/kg and the ED50 (mice; [8]) was 0.3 mg/kg. The ED50 (mice; [9]) was 5.6 mg/kg.

With `CC1=CCC2C(C1)c1c(O)cc(CC#CCCCNS(C)(=O)=O)cc1OC2(C)C` (stereo not shown) [Compound O-2050, 3-Norpentyl-3-(6-methanesulfamidohex-2-yne-yl)-Δ^8-tetrahydrocannabinol] the “CB1 receptor affinity (in words)” value (CB1 receptor [1]) was “high affinity”, the Kd (CB1 receptor [1]) was 2.5 ± 0.4 nM and the Kb (CB1 receptor [3]) was 1 nM. For the same molecule, the “Dextral Shift of WIN 55,212-2 log concentration-response curve” value (CB1 receptor [3]; 1 nM O-2050) was 2.8, the “Dextral Shift of WIN 55,212-2 log concentration-response curve” value (CB1 receptor [3]; 10 nM O-2050) was 7.5 and the “Dextral Shift of WIN 55,212-2 log concentration-response curve” value (CB1 receptor [3]; 20 nM O-2050) was 15. The “Dextral Shift of WIN 55,212-2 log concentration-response curve” value (CB1 receptor [3]; 100 nM O-2050) was 104, the “CB2 receptor affinity (in words)” value (CB2 receptor) was “high affinity” and the Kd (CB2 receptor) was 0.2 ± 0.06 nM. The “Negative stimulation of GTPγS binding / agonist character (in words)” value (CB1 receptor [2]) was “failed to produce negative stimulation”, the “GTPγS stimulation (1 μM)” value (CB1 receptor [2]) was 11% and the Kb (CB1 receptor [4]) was 1 nM. For the same molecule, the “Enhancement of amplitude of electrically-evoked contractions” value (mouse vas deferens [5]) was “did not enhance”, the ED50 (mice; [7]) was over 30 mg/kg and the ED50 (mice; [8]) was 4.3 mg/kg. For the same molecule, the ED50 (mice; [9]) was over 30 mg/kg, the “Sedation (in words)” value (mice; mouse tetrad) was “only weakly active” and the “Analgesia ED50” value (mice; [10]) was over 30 mg/kg. For the same molecule, the “Temperature (hypothermia) ED50” value (mice; [10]) was over 30 mg/kg.

In the case of `CCS(=O)(=O)NCCCCC(C)(C)c1cc(O)c2c(c1)OC(C)(C)C1CC=C(C)CC21` (stereo not shown) [Compound O-2113, 1,1-Dimethyl-5-ethanesulfamido-Δ^8-tetrahydrocannabinol], the “CB1 receptor affinity (in words)” value (CB1 receptor [1]) is reported as “high affinity”, the Kd (CB1 receptor [1]) is reported as 1.7 ± 0.3 nM and the “CB2 receptor affinity (in words)” value (CB2 receptor) is reported as “high affinity”. For the same molecule, the “Agonist potency” value (mice; i.v. administration) was “potent cannabinoid agonists”, the ED50 (mice; [7]) was 0.3 mg/kg and the ED50 (mice; [8]) was 0.4 mg/kg. For the same molecule, the ED50 (mice; [9]) was 1.4 mg/kg.

For `Cc1c(C(=O)NN2CCCCC2)nn(-c2ccc(Cl)cc2Cl)c1-c1ccc(Cl)cc1` [SR141716A], the “Enhancement of amplitude of electrically-evoked contractions” value (mouse vas deferens [6]) is given as “does enhance”.

With `CCCCCc1cc(O)c2c(c1)OC(C)(C)[C@@H]1CCC(C)=C[C@@H]21` [THC, reference compound] the “GTPγS stimulation (1 μM)” value (CB1 receptor [2]) was 15%.

Reference: patent publication US7279500B2, “Sulfonamide cannabinoid agonists and antagonists” (Virginia Commonwealth University, priority 2002, dated 2007)
